The values below come from BindingDB's records for doi:10.1021/jm070728r (University of Bari, 2007).

Experiment [1] has as its target T1, Amine oxidase [flavin-containing] A (Rattus norvegicus, UniProt P21396).
T1 sequence (P21396 whole entry): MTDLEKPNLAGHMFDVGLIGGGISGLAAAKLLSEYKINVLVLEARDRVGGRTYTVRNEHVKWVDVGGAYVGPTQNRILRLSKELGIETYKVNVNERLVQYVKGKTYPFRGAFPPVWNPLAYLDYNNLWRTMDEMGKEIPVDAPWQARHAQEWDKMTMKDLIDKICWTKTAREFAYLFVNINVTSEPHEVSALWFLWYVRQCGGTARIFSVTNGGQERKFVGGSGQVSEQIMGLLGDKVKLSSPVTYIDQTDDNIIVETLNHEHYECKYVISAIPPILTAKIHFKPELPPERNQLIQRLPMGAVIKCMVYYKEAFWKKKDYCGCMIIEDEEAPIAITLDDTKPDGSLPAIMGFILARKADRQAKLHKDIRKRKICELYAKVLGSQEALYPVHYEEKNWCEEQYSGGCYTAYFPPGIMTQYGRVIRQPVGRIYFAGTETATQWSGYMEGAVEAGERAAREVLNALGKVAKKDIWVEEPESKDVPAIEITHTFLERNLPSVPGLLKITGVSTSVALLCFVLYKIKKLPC
Kind of experiment: MAO Inhibition Assay. As to conditions: pH 7.4; 37 °C. The method, then: (§1) A continuous spectrophotometric assay that monitors the rate of oxidation of the nonselective MAO substrate kynuramine into 4-hydroxyquinoline was used. clorgyline or selegiline was preincubated with the suspension for 5 min to measure MAO-B or MAO-A activity, respectively. […] IC50 values were determined and calculated from a hyperbolic equation. Each assay was performed in triplicate on four to six separate homogenates.

Experiment [2] addresses T2, Amine oxidase [flavin-containing] B (Rattus norvegicus, UniProt P19643).
T2 sequence (P19643 whole entry): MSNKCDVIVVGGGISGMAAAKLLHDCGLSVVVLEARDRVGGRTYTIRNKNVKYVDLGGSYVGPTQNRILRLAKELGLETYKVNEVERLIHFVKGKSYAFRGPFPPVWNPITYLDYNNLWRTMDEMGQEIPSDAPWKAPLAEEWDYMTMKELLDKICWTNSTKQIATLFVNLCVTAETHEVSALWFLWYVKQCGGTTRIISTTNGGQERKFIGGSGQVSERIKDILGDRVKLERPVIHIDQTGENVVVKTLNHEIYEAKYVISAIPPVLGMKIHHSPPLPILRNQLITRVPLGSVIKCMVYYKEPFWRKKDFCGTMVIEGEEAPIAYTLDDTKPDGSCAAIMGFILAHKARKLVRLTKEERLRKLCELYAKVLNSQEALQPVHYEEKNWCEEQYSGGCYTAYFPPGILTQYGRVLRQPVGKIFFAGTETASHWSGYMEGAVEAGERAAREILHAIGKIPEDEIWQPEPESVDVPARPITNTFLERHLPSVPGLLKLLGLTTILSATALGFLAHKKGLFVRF
Description: MAO Inhibition Assay. The method, then: as §1

Turning to `c1ccc(-c2cc3c(nn2)-c2ccccc2C3)cc1`, the 50% inhibitory concentration (IC50) (in general, the concentration that gives 50% inhibition) in experiment [1] was greater than 100 µM.

With `c1ccc(-c2nc3cc4ccccc4c-3c[nH]2)cc1` [2-phenyl-9H-indeno[2,1-d]pyrimidine], the IC50 in experiment [1] is 16.7 µM; in experiment [2] it was 13 µM.
